Results reported in US20020009491A1, “Compositions and methods for enhancing drug delivery across biological membranes and tissues” (priority 2000, published 2002).

Tests used:
[1] = fluorescein alone; cited from earlier work
[2] = cited from earlier work
[3] = Water solubility of taxol phosphate analog / arginine heptamer salt versus taxol
Method: This water soluble analog of taxol was assayed for biological activity using a standard cytotoxicity assay.

Row | SMILES | solubility in water (general statement) [1] | water solubility [2] | solubility in water [3]
1 | O=C1OC2(c3ccc(O)cc3Oc3cc(O)ccc32)c2ccccc21 [fluorescein] | poorly soluble | – | –
2 | CC(=O)O[C@H]1C(=O)[C@@]2(C)[C@H]([C@H](OC(=O)c3ccccc3)[C@]3(O)C[C@H](OC(=O)[C@H](O)[C@@H](NC(=O)c4ccccc4)c4ccccc4)C(C)=C1C3(C)C)[C@]1(OC(C)=O)CO[C@@H]1C[C@@H]2O [taxol, paclitaxel] | – | ≈ 0.25 μg/mL | very limited solubility
3 | CC(=O)O[C@@]12CO[C@@H]1C[C@H](O)[C@@]1(C)C(=O)[C@H](O)C3=C(C)[C@@H](OC(=O)[C@H](O)[C@@H](NC(=O)OC(C)(C)C)c4ccccc4)C[C@@](O)([C@@H](OC(=O)c4ccccc4)[C@H]21)C3(C)C [taxotere] | – | 6 to 7 µg/mL | –
